The subject of assay [1] is DU 145 human prostate cancer cell line. As to the kind of experiment: Cytotoxicity (SRB) assay, DU 145. The format is cell-based. An excerpt:
(§1) Cells were stained with SRB solution.

For assay [2], the system named is PC-3 human prostate cancer cell line. In words: cells. To be noted: Homo sapiens.
Description: as §1

Assay [3] relates to PPC-1 human prostate cancer cell line. In words: Cytotoxicity (SRB) assay, PPC-1. The format is cell-based. The note with it: Homo sapiens, PPC-1, Table 6A; read-out: IC50 ± SEM, PPC-1 (converted).
Description: as §1

Where [4] appears, read: read-out: IC50 PC-3, SRB assay, prostate cancer PC-3.
Setting [5] is: read-out: IC50 ± SEM, PC-3, Table 13.
Setting [6] is: read-out: IC50 ± SEM, PC-3, Table 12.
The mark [7] stands for this setting: Homo sapiens, DU-145, Table 6A, read-out: IC50 ± SEM, DU 145.
Where [8] appears, read: read-out: IC50 ± SEM, PC-3, Table 6A.

Here are results for 43 molecules from patent US11465987B2, “Compounds for treatment of cancer” (ONCTERNAL THERAPEUTICS, INC., priority 2012, dated 2022).

Read-outs that look alike come from different tables or passages of the source.

On to “4-Methoxyphenyl(4-(3,4,5-trimethoxyphenyl)-1H-imidazol-2-yl)methanone and 4-methoxyphenyl(5-(3,4,5-trimethoxyphenyl)-1H-imidazol-2-yl)methanone [70y]”, for which, in assay [1] (Table 13B, read-out: inhibitory effects, DU145), the IC50 was over 50 µM.

On to `COc1cc(C(=O)c2cc(-c3ccccc3)n[nH]2)cc(OC)c1OC` [1k, (3-Phenyl-1H-pyrazol-5-yl)(3,4,5-trimethoxyphenyl)methanone], for which the IC50 in assay [2] (setting [4]) turned out to be 0.101 µM.

As for `COc1cc(C(=C(C)C)c2csc(-c3ccccc3)n2)cc(OC)c1OC` [2a, 4-(2-Methyl-1-(3,4,5-trimethoxyphenyl)prop-1-enyl)-2-phenylthiazole], the IC50 in assay [2] (setting [4]) is 2.47 µM.

Take `COc1cc(/C(=C\C#N)c2csc(-c3ccccc3)n2)cc(OC)c1OC` [2c-cis, (E)-3-(2-phenylthiazol-4-yl)-3-(3,4,5-trimethoxyphenyl)acrylonitrile]: in assay [2] (read-out: IC50 PC-3), the IC50 was about 10 µM.

On to `COc1cc(/C(=C/C#N)c2csc(-c3ccccc3)n2)cc(OC)c1OC` [2c-trans, (Z)-3-(2-phenylthiazol-4-yl)-3-(3,4,5-trimethoxyphenyl)acrylonitrile], for which, in assay [2] (read-out: IC50 PC-3), the IC50 is 0.89 µM.

As to `COc1cc(/C(=N/N)c2csc(-c3ccccc3)n2)cc(OC)c1OC` [2d-cis, (Z)-4-(hydrazono(3,4,5-trimethoxyphenyl)methyl)-2-phenylthiazole], the IC50 in assay [2] (setting [4]) is 1.12 µM.

For the molecule `COc1cc(/C(=N\N)c2csc(-c3ccccc3)n2)cc(OC)c1OC` [2d-trans, (E)-4-(hydrazono(3,4,5-trimethoxyphenyl)methyl)-2-phenylthiazole], the IC50 in assay [2] (setting [4]) is 1.04 µM.

As to `CO/N=C(/c1cc(OC)c(OC)c(OC)c1)c1csc(-c2ccccc2)n1` [2f-cis, (Z)-(2-Phenylthiazol-4-yl)(3,4,5-trimethoxyphenyl)methanone O-methyl oxime], the IC50 in assay [2] (setting [4]) is over 10 µM.

For `CO/N=C(\c1cc(OC)c(OC)c(OC)c1)c1csc(-c2ccccc2)n1` [2f-trans, (E)-(2-Phenylthiazol-4-yl)(3,4,5-trimethoxyphenyl)methanone O-methyl oxime], in assay [2] (setting [4]), the IC50 was over 10 µM.

For the molecule `COc1cc(C(=O)Nc2csc(-c3ccccc3)n2)cc(OC)c1OC` [2h, 3,4,5-Trimethoxy-N-(2-phenylthiazol-4-yl)benzamide], in assay [2] (setting [4]), the IC50 was over 10 µM.

In the case of `COc1cc(-c2csc(-c3ccccc3)n2)cc(OC)c1OC` [2i, 2-Phenyl-4-(3,4,5-trimethoxyphenyl)thiazole], the IC50 in assay [2] (setting [4]) is over 10 µM.

For the molecule `COc1cc(/C=C/c2csc(-c3ccccc3)n2)cc(OC)c1OC` [3b, (E)-2-Phenyl-4-(3,4,5-trimethoxystyryl)thiazole], in assay [2] (read-out: IC50 PC-3), the IC50 is over 10 µM.

For `COc1cc(S(=O)(=O)c2cccc(-c3ccccc3)c2)cc(OC)c1OC` [4b, 3-(3,4,5-Trimethoxyphenylsulfonyl)biphenyl], the IC50 in assay [2] (setting [4]) is over 10 µM.

Take `COc1cc([S+]([O-])c2cccc(-c3ccccc3)c2)cc(OC)c1OC` (centres unmarked) [4c, 3-(3,4,5-Trimethoxyphenylsulfinyl)biphenyl]: the IC50 in assay [2] (setting [4]) was over 10 µM.

Turning to `COc1cc(NS(=O)(=O)c2cccc(-c3ccccc3)c2)cc(OC)c1OC` [4d, N-(3,4,5-Trimethoxyphenyl)biphenyl-3-sulfonamide], the IC50 in assay [2] (setting [4]) was over 10 µM.

Consider `COc1cc(C(=O)c2csc(Nc3ccccc3)n2)cc(OC)c1OC` [5a, (2-(phenylamino)thiazol-4-yl)(3,4,5-trimethoxyphenyl)methanone], for which the IC50 in assay [2] (setting [4]) came to 0.057 ± 0.003 µM.

For `COc1cc(C(=O)c2csc(Nc3ccc(F)cc3)n2)cc(OC)c1OC` [5c, (2-(p-fluorophenylamino)thiazol-4-yl)(3,4,5-trimethoxyphenyl)methanone], the IC50 in assay [2] (setting [4]) was found to be 0.043 ± 0.001 µM.

On to `COc1cc(C(=O)c2csc(Nc3ccc(Cl)cc3)n2)cc(OC)c1OC` [5d, (2-(4-chlorophenylamino)thiazol-4-yl)(3,4,5-trimethoxyphenyl)methanone], for which, in assay [2] (setting [4]), the IC50 came out at 0.033 ± 0.001 µM.

Consider `COc1cc(C(=O)c2c[nH]c(Nc3ccccc3)n2)cc(OC)c1OC` [5e, (2-(phenylamino)-1H-imidazol-4-yl)(3,4,5-trimethoxyphenyl)methanone], for which the IC50 in assay [2] (setting [4]) was over 1 µM.

Regarding `COc1ccc(C(=O)c2cn(S(=O)(=O)c3ccccc3)c(-c3ccccc3)n2)cc1` [11ab, (4-methoxyphenyl)(2-phenyl-1-(phenylsulfonyl)-1H-imidazol-4-yl)methanone], the IC50 in assay [2] (setting [5]) was over 10 µM.

For the molecule `COc1cccc(C(=O)c2cn(S(=O)(=O)c3ccccc3)c(-c3ccccc3)n2)c1` [11ac, (3-methoxyphenyl)(2-phenyl-1-(phenylsulfonyl)-1H-imidazol-4-yl)methanone], the IC50 in assay [2] (setting [5]) is over 10 µM.

For `O=C(c1cccc(F)c1)c1cn(S(=O)(=O)c2ccccc2)c(-c2ccccc2)n1` [11ag, (3-fluorophenyl)(2-phenyl-1-(phenylsulfonyl)-1H-imidazol-4-yl)methanone], the IC50 in assay [2] (setting [5]) is over 10 µM.

With `Cc1ccc(C(=O)c2cn(S(=O)(=O)c3ccccc3)c(-c3ccccc3)n2)cc1` [11ah, (2-phenyl-1-(phenylsulfonyl)-1H-imidazol-4-yl)(p-tolyl)methanone], the IC50 in assay [2] (setting [5]) was over 10 µM.

Turning to `Cc1ccc(-c2nc(C(=O)c3ccc(F)cc3)cn2S(=O)(=O)c2ccccc2)cc1` [11db, (4-fluorophenyl)(1-(phenylsulfonyl)-2-(p-tolyl)-1H-imidazol-4-yl)methanone], the IC50 in assay [2] (setting [5]) is 0.08 µM.

On to `COc1ccc(-c2nc(C(=O)c3ccc(F)cc3)cn2C)cc1` [12cba, (4-fluorophenyl)(2-(4-methoxyphenyl)-1-methyl-1H-imidazol-4-yl)methanone], for which the IC50 in assay [2] (setting [5]) was over 10 µM.

On to `CN(C)c1ccc(-c2nc(C(=O)c3ccc(F)cc3)c[nH]2)cc1` [12gb, (2-(4-(dimethylamino)phenyl)-1H-imidazol-4-yl)(4-fluorophenyl)methanone], for which, in assay [2] (setting [6]), the IC50 is 0.081 µM.

`COc1cc(C(=O)c2c[nH]c(-c3ccc(C(F)(F)F)cc3)n2)cc(OC)c1OC` [12pa, (2-(4-(trifluoromethyl)phenyl)-1H-imidazol-4-yl)(3,4,5-trimethoxyphenyl)methanone]: the IC50 in assay [2] (setting [6]) is 0.127 µM.

Regarding `O=C(c1cc(O)c(O)c(O)c1)c1c[nH]c(-c2cc(O)c(O)c(O)c2)n1` [13ea, (3,4,5-trihydroxyphenyl)(2-(3,4,5-trihydroxyphenyl)-1H-imidazol-4-yl)methanone], in assay [2] (setting [6]), the IC50 was over 10 µM.

Turning to `COc1cc(C(=O)c2cn(S(=O)(=O)c3ccccc3)c(-c3ccc4c(c3)cc(C(=O)c3cc(OC)c(OC)c(OC)c3)n4S(=O)(=O)c3ccccc3)n2)cc(OC)c1OC` [16xaa, (1-(phenylsulfonyl)-2-(1-(phenylsulfonyl)-2-(3,4,5-trimethoxybenzoyl)-1H-indol-5-yl)-1H-imidazol-4-yl)(3,4,5-trimethoxyphenyl)methanone], the IC50 in assay [2] (read-out: IC50 ± SEM, PC-3) is over 10 µM.

As to `COc1cc(C(=O)[C@@H]2CSC(c3ccc(O[Si](C)(C)C(C)(C)C)cc3)=N2)cc(OC)c1OC` [58a, (R)-(2-(4-(tert-Butyldimethylsilyloxy)phenyl)-4,5-dihydrothiazol-4-yl)(3,4,5-trimethoxyphenyl)methanone], in assay [2] (read-out: IC50 PC-3), the IC50 amounted to 0.183 ± 0.024 µM.

`COc1cc(C(=O)c2csc(-c3cc4ccccc4[nH]3)n2)cc(OC)c1OC` [62a, (2-(1H-indol-2-yl)thiazol-4-yl)(3,4,5-trimethoxyphenyl)methanone]: the IC50 in assay [2] (read-out: IC50 PC-3) turned out to be 0.024 µM.

In the case of `COc1cc(C(=O)c2csc(-c3ccc(CNC(=O)OC(C)(C)C)cc3)n2)cc(OC)c1OC` [68a, tert-Butyl 4-(4-(3,4,5-trimethoxybenzoyl)thiazol-2-yl)benzylcarbamate], in assay [2] (setting [4]), the IC50 was found to be 3.1 µM.

Consider `COc1cc(C(=O)c2csc(-c3ccccc3)n2)cc(OC)c1OCc1ccccc1` [compound 9], for which the IC50 in assay [1] (setting [7]), in assay [2] (setting [8]) and in assay [3] was about 10 µM throughout.

Turning to `Cc1ccc(-c2nc(C(=O)c3ccc(F)cc3)cs2)cc1` [compound 11], the IC50 in assay [1] (setting [7]), in assay [2] (setting [8]) and in assay [3] was over 10 µM in each case.

With `O=C(c1ccc(F)cc1)c1csc(-c2ccccc2)n1` [compound 12], the IC50 in assay [1] (setting [7]), in assay [2] (setting [8]) and in assay [3] was over 10 µM in each case.

For `O=C(c1ccc(OC(F)(F)F)cc1)c1csc(-c2ccccc2)n1` [compound 13], the IC50 in assay [1] (setting [7]), in assay [2] (setting [8]) and in assay [3] was over 10 µM each time.

Take `O=C(c1ccc(F)cc1)c1csc(-c2ccc(F)cc2)n1` [compound 14]: the IC50 in assay [1] (setting [7]), in assay [2] (setting [8]) and in assay [3] was over 10 µM in each case.

Regarding `O=C(c1csc(-c2cc(F)c(F)c(F)c2)n1)c1c(F)c(F)c(F)c(F)c1F` [compound 16], the IC50 in assay [1] (setting [7]), in assay [2] (setting [8]) and in assay [3] was over 10 µM throughout.

Turning to `COc1cc(C(=O)c2csc(-c3ccccc3)n2)cc(OC)c1OC(=O)CCl` [compound 18], the IC50 in assay [1] (setting [7]), in assay [2] (setting [8]) and in assay [3] was about 10 µM in each case.

On to `O=C(c1ccc2c(c1)OCO2)N1CCC(c2ccccc2)CC1` [compound 19], for which the IC50 in assay [1] (setting [7]), in assay [2] (setting [8]) and in assay [3] was over 20 µM each time.

In the case of `COc1cc(C(=NC#N)c2csc(-c3ccccc3)n2)cc(OC)c1O` [compound 32, N-((4-hydroxy-3,5-dimethoxyphenyl)(2-phenylthiazol-4-yl)methylene)cyanamide], in assay [2] (setting [8]), the IC50 worked out at 2.29 µM.

Consider `c1ccc(Nc2nccn2C(c2ccccc2)(c2ccccc2)c2ccccc2)cc1` [d, N-Phenyl-1-trityl-1H-imidazol-2-amine], for which the IC50 in assay [2] (setting [4]) was over 1 µM.

Take `COc1cc(C(=O)c2cn(C(c3ccccc3)(c3ccccc3)c3ccccc3)c(Nc3ccccc3)n2)cc(OC)c1OC` [e, (2-(Phenylamino)-1-trityl-1H-imidazol-4-yl)(3,4,5 trimethoxyphenyl)methanone]: the IC50 in assay [2] (setting [4]) is over 1 µM.
